For one assay, the target named is T1, human GLP-1R (Homo sapiens, UniProt P43220).
T1 construct: expressed in transfected cells; crude membranes
The experiment in a line: [125I]-GLP-1 binding, SPA with WGA beads, 0.1% bacitracin. Conditions: geometric mean, read-out: hGLP1R Ki. Summed up: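 Binding buffer was 25 mM HEPES pH 7.4 with 2.5 mM CaCl2, 1 mM MgCl2, 0.1% (w/v) bacitracin, 0.003% Tween-20 and EDTA-free protease inhibitors. Four-parameter regression gave IC50, converted to Ki (geometric mean, SEM, n independent days).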

A further assay addresses T2, human GcgR (Homo sapiens, UniProt P47871).
T2 construct: expressed in transfected cells; crude membranes
The experiment in a line: [125I]-Glucagon binding, SPA with WGA beads, 0.1% bacitracin. Conditions: geometric mean, read-out: hGcgR Ki. The essentials:
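SPA competition binding with WGA beads on crude membranes from HEK293 cells stably expressing hGcgR. Buffer: 25 mM HEPES pH 7.4, 2.5 mM CaCl2, 1 mM MgCl2, 0.1% bacitracin, 0.003% Tween-20; 10-point 3-fold dilutions, NSB with 1 μM Gcg.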

For the next assay, the target named is T3, human GIPR (Homo sapiens, UniProt P48546).
T3 construct: expressed in transfected cells; crude membranes
T3 sequence (P48546 22-466): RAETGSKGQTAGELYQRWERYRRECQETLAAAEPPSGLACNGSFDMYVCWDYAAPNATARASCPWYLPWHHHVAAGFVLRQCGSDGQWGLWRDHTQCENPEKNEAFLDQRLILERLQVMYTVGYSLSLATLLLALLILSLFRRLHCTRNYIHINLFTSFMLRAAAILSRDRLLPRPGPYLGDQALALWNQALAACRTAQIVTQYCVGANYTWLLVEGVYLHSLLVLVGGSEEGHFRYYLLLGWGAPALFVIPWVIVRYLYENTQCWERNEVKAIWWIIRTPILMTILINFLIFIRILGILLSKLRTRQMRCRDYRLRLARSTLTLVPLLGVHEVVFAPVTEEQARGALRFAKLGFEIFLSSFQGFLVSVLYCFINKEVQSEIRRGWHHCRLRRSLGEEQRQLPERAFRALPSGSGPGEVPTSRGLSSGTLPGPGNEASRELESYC
The experiment in a line: [125I]-GIP binding, SPA with WGA beads, 0.1% bacitracin. Conditions: geometric mean, read-out: hGIPR Ki. Summed up:
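Ki values are geometric means (SEM, n independent days), derived from four-parameter nonlinear regression of IC50. Membranes came from hGIPR-expressing CHO cells.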

*1 amine or outer side, *2 acyl side, *3 side chain or, on linkers, in order; H or OH if unused. Where a SMILES comes first, the peptide text is derived from it. Side-chain parts run from the residue outwards. [ ]: non-standard residue; d: D form. The star is where a group is joined. C20 diacid = O=C(O)CCCCCCCCCCCCCCCCCCC(=O)*; γGlu = O=C(O)[C@H](CCC(=O)[*:2])N[*:1]; αMeL = CC(C)C[C@](C)(N)C(=O)O; Orn = NCCC[C@H](N)C(=O)O; AEEA = NCCOCCOCC(=O)O; Aib = CC(C)(N)C(=O)O

Our source for the Ki values is patent publication US12723063B2, “GIPR-agonist compounds” (Eli Lilly and Company, priority 2019, dated 2026).

One may read the Ki as the dissociation constant of the complex between target and ligand, obtained from inhibition or displacement.

T1 sequence (P43220 24-463): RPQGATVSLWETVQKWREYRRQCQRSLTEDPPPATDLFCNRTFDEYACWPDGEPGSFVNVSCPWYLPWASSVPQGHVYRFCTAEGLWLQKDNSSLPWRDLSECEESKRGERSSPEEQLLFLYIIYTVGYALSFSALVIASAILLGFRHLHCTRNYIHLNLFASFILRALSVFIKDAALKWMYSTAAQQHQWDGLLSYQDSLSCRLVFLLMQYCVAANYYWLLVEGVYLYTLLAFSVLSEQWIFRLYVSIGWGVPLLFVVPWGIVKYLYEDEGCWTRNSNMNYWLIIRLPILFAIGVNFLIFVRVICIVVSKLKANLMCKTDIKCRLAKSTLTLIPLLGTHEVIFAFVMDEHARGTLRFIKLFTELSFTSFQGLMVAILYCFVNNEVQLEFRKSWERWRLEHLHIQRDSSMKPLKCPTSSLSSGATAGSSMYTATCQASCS
T2 sequence (P47871 26-477): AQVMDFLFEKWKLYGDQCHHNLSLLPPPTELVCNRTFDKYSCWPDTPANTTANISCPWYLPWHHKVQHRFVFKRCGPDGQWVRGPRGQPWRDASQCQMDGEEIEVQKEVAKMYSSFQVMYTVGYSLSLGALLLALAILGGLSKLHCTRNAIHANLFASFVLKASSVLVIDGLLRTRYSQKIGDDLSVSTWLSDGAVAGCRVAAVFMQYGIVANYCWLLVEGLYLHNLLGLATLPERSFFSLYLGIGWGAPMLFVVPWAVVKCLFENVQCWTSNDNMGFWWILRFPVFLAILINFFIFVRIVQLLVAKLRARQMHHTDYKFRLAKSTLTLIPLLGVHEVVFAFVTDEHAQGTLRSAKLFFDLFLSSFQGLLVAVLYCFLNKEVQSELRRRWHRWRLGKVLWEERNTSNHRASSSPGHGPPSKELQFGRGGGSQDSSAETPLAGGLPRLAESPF

On to `CC[C@H](C)[C@H](NC(=O)[C@H](CCCN)NC(=O)[C@H](CC(=O)O)NC(=O)[C@H](CC(C)C)NC(=O)[C@](C)(CC(C)C)NC(=O)[C@@H](NC(=O)[C@H](CO)NC(=O)[C@H](Cc1ccc(O)cc1)NC(=O)[C@H](CC(=O)O)NC(=O)[C@H](CO)NC(=O)[C@@H](NC(=O)[C@H](Cc1ccccc1)NC(=O)[C@@H](NC(=O)CNC(=O)[C@H](CCC(=O)O)NC(=O)C(C)(C)NC(=O)[C@@H](N)Cc1ccc(O)cc1)[C@@H](C)O)[C@@H](C)CC)[C@@H](C)CC)C(=O)N[C@@H](CCCNC(=N)N)C(=O)N[C@@H](CCC(N)=O)C(=O)NC(C)(C)C(=O)N[C@@H](CC(=O)O)C(=O)N[C@@H](Cc1ccccc1)C(=O)N[C@H](C(=O)N[C@@H](CCC(=O)O)C(=O)N[C@@H](Cc1ccc(O)cc1)C(=O)N[C@@H](CCCCNC(=O)COCCOCCNC(=O)COCCOCCNC(=O)CC[C@H](NC(=O)CCCCCCCCCCCCCCCCCCC(=O)O)C(=O)O)C(=O)N[C@@H](CC(C)C)C(=O)N[C@@H](CCC(=O)O)C(=O)NCC(=O)NCC(=O)N1CCC[C@H]1C(=O)N[C@@H](CO)C(=O)N[C@@H](CO)C(=O)NCC(=O)N[C@@H](C)C(=O)N1CCC[C@H]1C(=O)N1CCC[C@H]1C(=O)N1CCC[C@H]1C(=O)N[C@@H](CO)C(N)=O)C(C)C` [Example 116] (H-Y[Aib]EGTFISDYSI[αMeL]LD[Orn]IRQ[Aib]DFVEYK([AEEA-AEEA-γGlu-C20 diacid])LEGGPSSGAPPPS-NH2), for which the Ki on human GLP-1R was > 912 nM; at human GcgR, 178 nM; at human GIPR, 0.166 nM.
For `CC[C@H](C)[C@H](NC(=O)[C@H](CCCCN)NC(=O)[C@H](CC(=O)O)NC(=O)[C@H](CC(C)C)NC(=O)[C@](C)(CC(C)C)NC(=O)[C@@H](NC(=O)[C@H](CO)NC(=O)[C@H](Cc1ccc(O)cc1)NC(=O)[C@H](CC(=O)O)NC(=O)[C@H](CO)NC(=O)[C@@H](NC(=O)[C@H](Cc1ccccc1)NC(=O)[C@@H](NC(=O)CNC(=O)[C@H](CCC(=O)O)NC(=O)C(C)(C)NC(=O)[C@@H](N)Cc1ccc(O)cc1)[C@@H](C)O)[C@@H](C)CC)[C@@H](C)CC)C(=O)N[C@@H](Cc1c[nH]cn1)C(=O)N[C@@H](CCC(N)=O)C(=O)NC(C)(C)C(=O)N[C@@H](CC(=O)O)C(=O)N[C@@H](Cc1ccccc1)C(=O)N[C@H](C(=O)N[C@@H](CCC(=O)O)C(=O)N[C@@H](Cc1ccc(O)cc1)C(=O)N[C@@H](CCCCNC(=O)COCCOCCNC(=O)COCCOCCNC(=O)CC[C@H](NC(=O)CCCCCCCCCCCCCCCCCCC(=O)O)C(=O)O)C(=O)N[C@@H](CC(C)C)C(=O)N[C@@H](CCC(=O)O)C(=O)N[C@@H](C)C(=O)NCC(=O)N1CCC[C@H]1C(=O)N[C@@H](CO)C(=O)N[C@@H](CO)C(=O)NCC(=O)N[C@@H](C)C(=O)N1CCC[C@H]1C(=O)N1CCC[C@H]1C(=O)N1CCC[C@H]1C(=O)N[C@@H](CO)C(N)=O)C(C)C` [Example 117] (H-Y[Aib]EGTFISDYSI[αMeL]LDKIHQ[Aib]DFVEYK([AEEA-AEEA-γGlu-C20 diacid])LEAGPSSGAPPPS-NH2), the values for the Ki on human GLP-1R, on human GcgR and on human GIPR were 591 nM, 685 nM and 0.0722 nM, respectively.
